Experimental data published in paper PMC3709979 (PLoS ONE, 2013).
Where “and” joins values, the source holds several entries; their conditions need not be identical. Equal entries are not always repeated. Entries after “also recorded” stand apart in the source; their conditions may differ. Where two headings read alike, the source gives them in different places. Blank lines part the entries; values can stand above or below the molecule they belong to.

Tests used:
[1] = test system: estrogen responsive element (ERE)-luciferase in MCF-7 cells; test: ERE-luciferase induction in MCF-7 cells; format: cell-based; details: 24 h; for ERE-luciferase induction in MCF-7 cells (in words): isolated compounds tested at 0.1 µM and 1 µM
Description: The Dual-Luciferase Reporter Assay System protocol from Promega (Madison, WI) was used to evaluate the activation of ERs through interaction with ERE at the promoter of estrogen responsive genes, resulting in the expression of the fused luciferase reporter. Briefly, MCF-7 cells grown in phenol-red free medium for 48 h, were trypsinized and re-suspended in serum-free medium at 1×10^7 cells/mL followed by a 10 min incubation at room temperature with pERE (3 µg/mL) obtained from Dr. V. C. Jordan, Northwestern University, and pRL-TK (Promega) (1 µg/mL) in a 4 mm gap cuvette before electroporation at 950 µF and 250 V using the Gene Pulser Xcell (BioRad Laboratories, Hercules, CA). Transfected cells were diluted in serum containing medium and plated in 24-well plates (2×10^5 cells/well). After 24 h, the cells were washed with PBS and treated with two concentrations of the crude extracts (2 µg/mL and 10 µg/mL) and two concentrations of the isolated compounds (0.1 µM and 1 µM), for an additional 24 h. […] Cell lysates (20 µL) were placed in white Costar 96-well plates, before the injection of Luciferase Assay reagent (100 µL) followed by a 12 s read by a FLUOstar OPTIMA (BMG Lab Tech, Offenburg, Germany). To quench the firefly luciferase expression and activation of the renilla expression, Stop & Glo reagent (100 µL) was injected followed by a 12 s read. In order to exclude the errors in transfection efficiency, average read out of the luciferase activity was normalized to the average associated pRL-TK read outs (renilla activity). The results were converted into fold induction by normalizing to DMSO.

[2] = test system: estrogen-responsive alkaline phosphatase in Ishikawa cells; test: Induction of estrogen-responsive alkaline phosphatase (AP) in Ishikawa cells; details: 96 h; for EC50: Homo sapiens, Ishikawa
Description: Ishikawa cells (5×10^4 cells/well) were pre-incubated in 96 well plates in estrogen-free medium for 24 h. Test samples dissolved in DMSO, were added at different concentrations and the DMSO concentration was kept lower than 0.1%. […] Plates were incubated at 37°C for 96 h. […] The maximum slope of the kinetic curve for every experiment well was calculated.

human recombinant ERβ [3] = target: T1, human recombinant ERβ (Homo sapiens, UniProt Q92731); parameters: purchased Invitrogen (Grand Island, NY); method as in J. Agric. Food Chem. 2005, 53, 6246–6253; details: read-out: IC50 ERβ; isolated compounds; ref J. Agric. Food Chem. 2005, 53, 6246–6253; cited from earlier work
Tff1 mRNA in T47D cells = test: Tff1 mRNA induction in T47D cells (qRT-PCR); format: cell-based; details: 8-PN 100 nM, LigF 5 µM, LigC 5 µM, 6 h, relative to DMSO
Description: Quantitative real-time polymerase chain reaction (qRT-PCR) was used to examine the modulation of the Tff1 induction following treatment of T47D cells with the extracts and the related compounds. Experiments were performed four independent times in triplicates. T47D cells (4×10^4 cells/mL) were preincubated in estrogen-free media for 72 h. […] Total RNA was isolated using the TRIzol Plus RNA purification kit (Invitrogen) and quantitated by UV analysis at 260 nm. cDNA synthesis was performed using qScript cDNA synthesis kit (Quanta Biosceiences) in a total volume of […], containing 4 µL qScript reaction mixture (5X), 1 µL qScript RT, 10 µL nuclease-free water, and 5 µL of RNA sample. The reaction was carried out for 5 min at 22°C, followed by 42°C for 30 min and a 5 min incubation step at 85°C. The PCR and subsequent analyses were performed using the ABI StepOne Plus RT-PCR system (Applied Biosystems). Quantitation was performed using the TaqMan technology of Applied Biosystems. Tff1 was evaluated using a predeveloped gene expression primer/probe set (Applied Biosystems' Assay on Demand). Briefly, the PCR reaction mixture was prepared in a total volume of 20 µL, containing 1 µL 20X TagMan Gene Expression Assay, 10 µL 2X TaqMan Gene Expression Master Mix, 4 µL cDNA template, and 5 µL RNase-free water. The reaction mixture was incubated at 50°C for 2 min followed by 10 min at 95°C. Polymerase chain reactions were performed in triplicate and consisted of 40 cycles with 15 s denaturing step at 95°C and 1 min annealing/extending step at 60°C each. The fluorescence signal was measured during the last 30 s of the annealing/extension phase. Following analysis, a fluorescence threshold value was set and threshold cycle (Ct) values were determined. […] The final results were expressed as a fold induction, where the levels of Tff1 observed in the DMSO-treated samples was defined as one.

ERα [4] = target: T2, ERα (Homo sapiens, UniProt P03372); test: biochemical
T2 sequence (P03372 1-595): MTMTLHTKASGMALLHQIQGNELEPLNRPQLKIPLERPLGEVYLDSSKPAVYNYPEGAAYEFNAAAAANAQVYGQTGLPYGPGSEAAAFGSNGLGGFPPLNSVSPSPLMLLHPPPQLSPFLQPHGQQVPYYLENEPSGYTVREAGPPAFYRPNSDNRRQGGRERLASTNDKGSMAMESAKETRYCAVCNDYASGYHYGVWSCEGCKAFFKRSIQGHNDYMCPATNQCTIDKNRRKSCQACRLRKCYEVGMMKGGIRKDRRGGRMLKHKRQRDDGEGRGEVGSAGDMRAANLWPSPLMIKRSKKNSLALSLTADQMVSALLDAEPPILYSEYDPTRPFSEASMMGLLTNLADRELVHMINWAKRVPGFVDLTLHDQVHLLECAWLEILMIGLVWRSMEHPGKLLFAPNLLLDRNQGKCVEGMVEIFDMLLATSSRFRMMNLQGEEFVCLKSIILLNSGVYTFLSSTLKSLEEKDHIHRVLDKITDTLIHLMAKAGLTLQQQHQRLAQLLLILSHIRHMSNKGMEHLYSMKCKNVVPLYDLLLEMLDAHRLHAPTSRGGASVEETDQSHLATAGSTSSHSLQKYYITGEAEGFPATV
Description: (§1) To correct for non-specific binding, a control containing all the added components except for the hot mix was considered. The incubation was carried out at room temperature for 2 h before 100 µL of 50% hydroxyapatite slurry (HAPS) was added. The tubes were incubated on ice for 15 min with vortexing every 5 min. The appropriate ER wash buffer was added (1 mL), and the tubes were vortexed before centrifuging at 10000×g for 5 min. The supernatant was discarded, and this wash step was repeated three times. The HAPS pellet containing the ligand-receptor complex was re-suspended in 200 µL of ethanol and transferred to scintillation vials. An additional 200 µL of ethanol was used to rinse the centrifuge tube.

[5] = Isomerization of isoliquiritigenin to liquiritigenin under bioassay conditions (LC-MS/LC-UV); format: physicochemical
Description: To evaluate this conversion and better define the compounds responsible for the observed estrogenic activity, LC-MS monitoring of the isomerization of these active principles in the cell-based assays was performed in parallel to every bioassay. One set of plates was considered for time 0, when there was no treatment and another set was considered for the final harvesting day for every experimental condition. The media exposed to cells were collected and extracted by adding sodium acetate buffer (100 mM, pH 5), followed by liquid-liquid extraction by water-saturated ethyl acetate.

human recombinant ERβ [6] = target: T1, human recombinant ERβ; test: biochemical
Description: as §1

Ishikawa cells = test: Cytotoxicity in cell culture assays; format: cell-based; details: AP assay, reduction in the estrogenic response
Description: The Ishikawa cell line was provided by Dr. R. B. Hochberg (Yale University, New Haven, CT) and was maintained in Dulbecco's Modified Eagle Medium (DMEM/F12) containing 1% sodium pyruvate, 1% nonessential amino acids (NEAA), 1% glutamax-1, 0.05% insulin, and 10% heat-inactivated FBS [32], [33], [34]. […] Two days before treating the cells, the medium was replaced with phenol red-free DMEM/F12 medium containing charcoal/dextran-stripped FBS and supplements. […] However, alkaline phosphatase was not inducible in ECC1 cells obtained from ATCC. Despite this controversy, we will keep the conventional name, Ishikawa, for this cell line throughout this paper. The MCF-7 cell line was purchased from ATCC. […] Two days prior to treating the cells, the medium was replaced with phenol red-free RPMI 1640 medium containing charcoal/dextran-stripped FBS with acetone-washed activated charcoal (100mg/mL) at 4°C for 30 min and centrifuged at 4000 rpm for 15 min at 4°C. This step was repeated in triplicate. Extracts and compounds were not toxic to cells at the applied concentrations, under these experimental conditions. DMSO concentrations for all cell culture assays were below 0.1%.

ERα [7] = target: T2, ERα
Description: as §1

ERα [8] = target: T2, ERα; test: Pulsed ultrafiltration LC-MS screening for ERα ligands; format: binding; parameters: purchased Invitrogen (Grand Island, NY); details: crude MeOH extract 150 µg/ml, 1 h room temperature, denatured ER control
Description: A screening assay based on ultrafiltration mass spectrometry was used to identify the ligands of ER present in licorice crude extracts. Briefly, 150 µg/ml of the methanol crude extract was incubated for 1 h at room temperature with 50 pmol of ERα or ERβ in binding buffer consisting of 50 mM Tris-HCl (pH 7.5), 10% glycerol, 50 mM KCl, and 1 mM ethylenediaminetetraacetic acid (EDTA) in a total volume of 50 µL. Identical control incubations in which denatured ER was substituted for active ER was used to correct for nonspecific binding of compounds to the ultrafiltration membrane and holder. After incubation, each mixture was filtered through a Microcon (Millipore, Bedford, MA) YM-30 centrifugal filter containing a regenerated cellulose ultrafiltration membrane with a 30000 MW cutoff and washed three times with 200 µL aliquots of ammonium acetate buffer (pH 7.5) at 4°C to remove the unbound compounds. The bound ligands were released by adding 400 µL of methanol/water (90∶10; v/v) followed by centrifugation at 10000×g for 10 min. […] Aliquots (10 µL) were analyzed using LC-MS, which consisted of a reverse phase separation on a Shimadzu (Kyoto, Japan) Shim-Pack XR-ODS III C18 (1.6 µm, 2.0 mm ×50 mm) column and mass spectrometric analysis on a Shimadzu LCMS- IT-TOF mass spectrometer. […]

[9] = read-out: AP induction Ishikawa cells EC50

T1 sequence (Q92731 whole entry): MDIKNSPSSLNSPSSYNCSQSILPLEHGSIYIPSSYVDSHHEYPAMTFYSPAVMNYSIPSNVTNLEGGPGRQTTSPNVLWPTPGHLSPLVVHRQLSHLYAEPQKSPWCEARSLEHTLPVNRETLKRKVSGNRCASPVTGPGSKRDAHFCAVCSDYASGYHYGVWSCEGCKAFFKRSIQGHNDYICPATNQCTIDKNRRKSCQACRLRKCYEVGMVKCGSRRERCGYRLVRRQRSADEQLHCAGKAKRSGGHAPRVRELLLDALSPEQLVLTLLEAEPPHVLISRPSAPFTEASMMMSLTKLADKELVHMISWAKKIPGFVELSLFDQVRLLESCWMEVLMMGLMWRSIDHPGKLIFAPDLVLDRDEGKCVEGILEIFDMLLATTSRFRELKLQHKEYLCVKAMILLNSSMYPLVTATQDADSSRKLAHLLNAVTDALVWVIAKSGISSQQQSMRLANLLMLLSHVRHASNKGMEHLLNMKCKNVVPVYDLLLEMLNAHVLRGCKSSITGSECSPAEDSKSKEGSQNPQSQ

SMILES: CC(C)=CCc1c(O)cc(O)c2c1O[C@H](c1ccc(O)cc1)CC2=O [8-PN, 8-prenylnaringenin]
ERE-luciferase induction in MCF-7 cells (in words) [1]: showed induction of ERE-luciferase
EC50 ([2]; read-out: AP induction Ishikawa cells EC50, as given in text, 96 h): 6.6 nM
EC50 ([2]; read-out: AP induction Ishikawa cells EC50, isolated compounds, 96 h, n = 9): 6.65 ± 1.4 nM
IC50 (human recombinant ERβ [3]): 1700 ± 100 nM

SMILES: O=C1C[C@@H](c2ccc(O)cc2)Oc2cc(O)ccc21 [LigF, liquiritigenin]
Tff1 mRNA induction in T47D cells (Tff1 mRNA in T47D cells): lower than that of 8-PN (0.1 µM), but the difference was not significant
fold induction at 0.1 µM ([1]; Homo sapiens, MCF7, isolated compounds at 100 nM, DMSO set to 1): 2.1 ± 0.4
ERE-luciferase induction in MCF-7 cells (in words) [1]: showed induction of ERE-luciferase
IC50 (ERα [4]): > 200 µM
EC50 [2, 9]: 3400 ± 400 nM
Maximum AP fold induction Ishikawa cells ([2]; maximum efficacy): 83 fold and 83.1±3.4 fold
IC50 ERα (ERα [7]): very weak affinity for ERα
binding to ERα in PUF-MS screening (ERα [8]): bound to ERα and ERβ

SMILES: COc1cc(O)c(CC=C(C)C)c(O)c1C(=O)/C=C/c1ccc(O)cc1 [XH, xanthohumol]
Tff1 mRNA induction in T47D cells (Tff1 mRNA in T47D cells): no Tff1 activity
ERE-luciferase induction in MCF-7 cells (in words) [1]: did not show any induction of ERE-luciferase
AP induction Ishikawa cells EC50 ([2]; isolated compounds, n = 9): inactive

Further lines, with some results ahead:

EC50 [2, 9]: 0.19 ± 0.05 nM
SMILES: C[C@]12CC[C@@H]3c4ccc(O)cc4CC[C@H]3[C@@H]1CC[C@@H]2O [17β-estradiol, reference compound]

IC50 (ERα [4]): 16 ± 1 µM
EC50 [2, 9]: 2700 ± 200 nM
IC50 (human recombinant ERβ [6]): 7.8 ± 0.1 µM
SMILES: O=C(/C=C/c1ccc(O)cc1)c1ccc(O)cc1O [LigC, isoliquiritigenin]
Tff1 mRNA induction in T47D cells (Tff1 mRNA in T47D cells): induced Tff1, significantly
isomerization of LigC to LigF ([5]; ER binding buffer, 2 h at room temperature, LC-UV): did not show any isomerization of LigC to LigF; also recorded: did not show a conversion of LigC to LigF
isomerization of LigC to LigF ([5]; cell media of AP assay, 96 h with Ishikawa cells at 37°C, LC-MS): significant reduction in the LigC content and a corresponding increase in LigF formation; also recorded: mostly converted to LigF
isomerization of LigC to LigF ([5]; cell media of mRNA induction assay, 6 h with T47D cells at 37°C, LC-MS): did not show a significant formation of LigF from LigC; also recorded: the conversion was limited
concentrations with cytotoxic effects (Ishikawa cells): above 7.5 µM
